{"source": "patent US10335495B2", "about": "“Biomolecule conjugates” (CELGENE CORPORATION, priority 2014, dated 2019)", "origin": "cited, not measured here", "settings": "versus methotrexate, daunorubicin, and vincristine"}
{"smiles": "COc1cc2cc(c1Cl)N(C)C(=O)C[C@H](OC(=O)[C@H](C)N(C)C(C)=O)[C@]1(C)O[C@H]1[C@H](C)[C@@H]1C[C@@](O)(NC(=O)O1)[C@H](OC)/C=C/C=C(\\C)C2", "note": "[Maytansine]", "values": [{"measurement": "more cytotoxic than conventional cancer chemotherapeutic agents", "result": "100- to 1000 fold"}]}
